In US10717716B2, “1,3,4-oxadiazole derivative compounds as histone deacetylase 6 inhibitor, and the pharmaceutical composition comprising the same” (Chong Kun Dang Pharmaceutical Corp., priority 2015, dated 2020):

Columns and labels:
human recombinant HDAC1 = biological target: T1, human recombinant HDAC1 (Homo sapiens, UniProt Q13547); assay: HDAC1 enzyme activity inhibition assay (HDAC Fluorimetric Drug Discovery Kit); type: biochemical; settings: human recombinant HDAC1, Fluor de Lys substrate 10 μM, 30° C. 60 minutes
T1 construct: purchased Enzo Life Science BML-SE456
Procedure: In order to examine the HDAC6 selectivity of the compounds of formula I of the present invention by HDAC1 and HDAC6 enzymatic activity inhibition assays, an experiment was performed using a conventional substance as a control.
HDAC enzyme activity was measured using a HDAC Fluorimetric Drug Discovery Kit (BML-AK511, 516, Enzo Life Science). For the HDAC1 enzyme activity test, human recombinant HDAC1 (BML-SE456) was used as an enzyme source, and Fluor de Lys®-“SIRT1 (BNL-KI177) was used as a substrate. A 5-fold dilution of the compound was seeded into a 96-well plate, and then 0.3 μg of the enzyme and 10 μM of the substrate were added to each well of the plate and allowed to react at 30° C. for 60 minutes. Then, Fluor de Lys®-Developer II (BML-KI176) was added thereto and allowed to react for 30 minutes, after which the fluorescence value (Ex 360, Em 460) was measured using a multi-plate reader (Flexstation 3, Molecular Device). The HDAC6 enzyme was tested using human recombinant HDAC6 (382180) (Calbiochem) according to the same protocol as the HDAC1 enzyme activity test method. Based on the resulting values, each IC5, value was calculated using GraphPad Prism4.0 program.

human recombinant HDAC6 = biological target: T2, human recombinant HDAC6 (Homo sapiens, UniProt Q9UBN7); assay: HDAC6 enzyme activity inhibition assay (HDAC Fluorimetric Drug Discovery Kit); type: biochemical; settings: for HDAC6 selectivity (fold): HDAC6 over HDAC1; for IC50: human recombinant HDAC6, same protocol as HDAC1, read-out: HDAC6
T2 construct: purchased Calbiochem 382180
T2 sequence (Q9UBN7 1-1215): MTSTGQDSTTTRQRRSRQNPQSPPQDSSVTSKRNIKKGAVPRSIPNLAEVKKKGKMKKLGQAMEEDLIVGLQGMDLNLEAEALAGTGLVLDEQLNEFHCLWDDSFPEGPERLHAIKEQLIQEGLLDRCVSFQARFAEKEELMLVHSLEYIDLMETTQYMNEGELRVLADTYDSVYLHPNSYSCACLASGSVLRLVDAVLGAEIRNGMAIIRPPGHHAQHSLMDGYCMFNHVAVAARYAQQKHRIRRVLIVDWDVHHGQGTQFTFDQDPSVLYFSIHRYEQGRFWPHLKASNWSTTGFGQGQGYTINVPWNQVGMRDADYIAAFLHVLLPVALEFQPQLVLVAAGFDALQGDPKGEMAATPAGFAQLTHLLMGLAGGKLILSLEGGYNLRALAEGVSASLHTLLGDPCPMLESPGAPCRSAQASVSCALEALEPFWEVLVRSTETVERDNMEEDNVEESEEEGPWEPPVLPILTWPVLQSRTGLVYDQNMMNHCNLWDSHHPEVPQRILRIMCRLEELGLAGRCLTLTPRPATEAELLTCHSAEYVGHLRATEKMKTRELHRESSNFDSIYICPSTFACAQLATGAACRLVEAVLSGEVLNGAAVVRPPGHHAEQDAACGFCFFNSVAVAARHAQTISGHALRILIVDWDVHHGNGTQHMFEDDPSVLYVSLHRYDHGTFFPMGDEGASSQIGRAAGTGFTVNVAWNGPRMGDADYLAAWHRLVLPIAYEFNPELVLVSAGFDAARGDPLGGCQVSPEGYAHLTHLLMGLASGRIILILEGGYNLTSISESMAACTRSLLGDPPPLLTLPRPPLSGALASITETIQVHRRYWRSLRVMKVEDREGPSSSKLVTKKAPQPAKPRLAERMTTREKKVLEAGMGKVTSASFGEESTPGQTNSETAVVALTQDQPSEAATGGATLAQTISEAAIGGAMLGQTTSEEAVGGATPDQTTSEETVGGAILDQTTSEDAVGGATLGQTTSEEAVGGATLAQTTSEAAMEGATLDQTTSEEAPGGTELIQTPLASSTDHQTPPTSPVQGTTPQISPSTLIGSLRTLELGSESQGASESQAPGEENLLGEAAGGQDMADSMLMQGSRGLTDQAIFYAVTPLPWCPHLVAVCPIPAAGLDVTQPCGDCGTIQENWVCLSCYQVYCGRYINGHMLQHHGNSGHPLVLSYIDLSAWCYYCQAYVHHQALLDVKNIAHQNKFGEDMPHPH
How it was run: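 Fluorimetric deacetylase assay: 5-fold serial compound dilutions, 0.3 μg recombinant human enzyme (HDAC1 or HDAC6, same protocol), 10 μM Fluor de Lys-SIRT1 substrate, 60 min at 30 °C. Signal developed 30 min, measured at 360/460 nm; IC50 values derived.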

T1 sequence (Q13547 whole entry): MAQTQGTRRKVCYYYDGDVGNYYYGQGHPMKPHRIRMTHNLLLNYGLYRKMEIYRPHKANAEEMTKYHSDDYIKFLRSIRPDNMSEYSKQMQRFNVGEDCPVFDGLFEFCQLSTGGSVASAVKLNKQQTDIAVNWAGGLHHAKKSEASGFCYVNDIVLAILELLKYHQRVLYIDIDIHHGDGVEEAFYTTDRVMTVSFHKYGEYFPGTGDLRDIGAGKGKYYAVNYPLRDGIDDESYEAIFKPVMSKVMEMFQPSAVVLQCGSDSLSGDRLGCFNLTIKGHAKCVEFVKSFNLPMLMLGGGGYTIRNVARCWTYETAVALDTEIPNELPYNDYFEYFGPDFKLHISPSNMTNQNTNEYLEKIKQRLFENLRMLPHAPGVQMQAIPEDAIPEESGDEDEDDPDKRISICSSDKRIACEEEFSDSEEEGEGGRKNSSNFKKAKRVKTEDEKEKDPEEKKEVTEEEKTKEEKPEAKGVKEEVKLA

Row | Structure (SMILES) | IC50 (human recombinant HDAC1) [µM] | HDAC6 selectivity (fold) (human recombinant HDAC6) | IC50 (human recombinant HDAC6) [µM]
1 | O=C(N1CCS(=O)(=O)CC1)N(Cc1ccc(-c2nnc(C(F)(F)F)o2)cc1)c1cccc(-c2cccnc2)c1 [Compound 21436, N-(3-(pyridin-3-yl)phenyl)-N-(4-(5-(trifluoromethyl)-1,3,4-oxadiazol-2-yl)benzyl)thiomorpholine-4-carboxamide 1,1-dioxide] | 5.73 | 13 | 0.433
2 | O=C(N1CCS(=O)(=O)CC1)N(Cc1ccc(-c2nnc(C(F)(F)F)o2)cc1)c1cccc(-c2ccc3c(c2)OCO3)c1 [Compound 21437, N-(3-(benzo[d][1,3]dioxol-5-yl)phenyl)-N-(4-(5-(trifluoromethyl)-1,3,4-oxadiazol-2-yl)benzyl)thiomorpholine-4-carboxamide 1,1-dioxide] | 8.22 | 11 | 0.74
3 | O=C(N1CCS(=O)(=O)CC1)N(Cc1ccc(-c2nnc(C(F)(F)F)o2)cc1)c1cccc(-c2ccccc2)c1 [Compound 21439, N-([1,1′-biphenyl]-3-yl)-N-(4-(5-(trifluoromethyl)-1,3,4-oxadiazol-2-yl)benzyl)thiomorpholine-4-carboxamide 1,1-dioxide] | 6.11 | 6 | 1.01
4 | Cc1cccc(N(Cc2ccc(-c3nnc(C(F)(F)F)o3)cc2)C(=O)N2CCS(=O)(=O)CC2)c1 [Compound 21442, N-(m-tolyl)-N-(4-(5-(trifluoromethyl)-1,3,4-oxadiazol-2-yl)benzyl)thiomorpholine-4-carboxamide 1,1-dioxide] | 8.73 | 77 | 0.114
5 | CS(=O)(=O)c1ccc(N(Cc2ccc(-c3nnc(C(F)(F)F)o3)cc2)C(=O)N2CCOCC2)cc1 [Compound 21443, N-(4-(methylsulfonyl)phenyl)-N-(4-(5-(trifluoromethyl)-1,3,4-oxadiazol-2-yl)benzyl)morpholine-4-carboxamide] | 7.44 | 20 | 0.366
6 | O=C(N1CCS(=O)(=O)CC1)N(Cc1ccc(-c2nnc(C(F)(F)F)o2)cc1F)c1ccc2c(c1)CCO2 [Compound 21543, N-(2,3-dihydrobenzofuran-5-yl)-N-(2-fluoro-4-(5-(trifluoromethyl)-1,3,4-oxadiazol-2-yl)benzyl)thiomorpholine-4-carboxamide 1,1-dioxide] | 4.75 | 64 | 0.073
7 | CCN1CCN(C(=O)N(Cc2ccc(-c3nnc(C(F)(F)F)o3)cc2F)c2ccc(F)c(Cl)c2)CC1 [Compound 21592, N-(3-chloro-4-fluorophenyl)-4-ethyl-N-(2-fluoro-4-(5-(trifluoromethyl)-1,3,4-oxadiazol-2-yl)benzyl)piperazine-1-carboxamide] | 8.28 | 100 | 0.1

Compounds with a lower IC50 (human recombinant HDAC1), results first:

Row | IC50 (human recombinant HDAC1) [µM] | HDAC6 selectivity (fold) (human recombinant HDAC6) | IC50 (human recombinant HDAC6) [µM] | Structure (SMILES)
8 | 2.7 | 4 | 0.75 | Cn1ncc2ccc(-c3cccc(N(Cc4ccc(-c5nnc(C(F)(F)F)o5)cc4)C(=O)N4CCS(=O)(=O)CC4)c3)cc21 [Compound 21438, N-(3-(1-methyl-1H-indazol-6-yl)phenyl)-N-(4-(5-(trifluoromethyl)-1,3,4-oxadiazol-2-yl)benzyl)thiomorpholine-4-carboxamide 1,1-dioxide]
9 | 2.53 | 18 | 0.139 | COc1cccc(N(Cc2ccc(-c3nnc(C(F)(F)F)o3)cc2)C(=O)N2CCS(=O)(=O)CC2)c1 [Compound 21441, N-(3-methoxyphenyl)-N-(4-(5-(trifluoromethyl)-1,3,4-oxadiazol-2-yl)benzyl)thiomorpholine-4-carboxamide 1,1-dioxide]
10 | 4.42 | 12 | 0.369 | O=C(N1CCS(=O)(=O)CC1)N(Cc1ccc(-c2nnc(C(F)(F)F)o2)cc1)c1ccc(-c2ccccc2)cc1 [Compound 21485, N-([1,1′-biphenyl]-4-yl)-N-(4-(5-(trifluoromethyl)-1,3,4-oxadiazol-2-yl)benzyl)thiomorpholine-4-carboxamide 1,1-dioxide]
11 | 1.95 | 6 | 0.344 | Cn1ncc2ccc(-c3ccc(N(Cc4ccc(-c5nnc(C(F)(F)F)o5)cc4)C(=O)N4CCS(=O)(=O)CC4)cc3)cc21 [Compound 21487, N-(4-(1-methyl-1H-indazol-6-yl)phenyl)-N-(4-(5-(trifluoromethyl)-1,3,4-oxadiazol-2-yl)benzyl)thiomorpholine-4-carboxamide 1,1-dioxide]
12 | 1.65 | 18 | 0.089 | O=C(N1CCS(=O)(=O)CC1)N(Cc1ccc(-c2nnc(C(F)(F)F)o2)cc1)c1ccc(-c2cccnc2)cc1 [Compound 21489, N-(4-(pyridin-3-yl)phenyl)-N-(4-(5-(trifluoromethyl)-1,3,4-oxadiazol-2-yl)benzyl)thiomorpholine-4-carboxamide 1,1-dioxide]
13 | 4.04 | 25 | 0.157 | O=C(N1CCS(=O)(=O)CC1)N(Cc1ccc(-c2nnc(C(F)(F)F)o2)cc1)c1ccc(-c2ccoc2)cc1 [Compound 21491, N-(4-(furan-3-yl)phenyl)-N-(4-(5-(trifluoromethyl)-1,3,4-oxadiazol-2-yl)benzyl)thiomorpholine-4-carboxamide 1,1-dioxide]
14 | 1.74 | 6 | 0.313 | O=C(N1CCS(=O)(=O)CC1)N(Cc1ccc(-c2nnc(C(F)(F)F)o2)cc1)c1ccc(-c2ccc3c(c2)OCO3)cc1 [Compound 21493, N-(4-(benzo[d][1,3]dioxol-5-yl)phenyl)-N-(4-(5-(trifluoromethyl)-1,3,4-oxadiazol-2-yl)benzyl)thiomorpholine-4-carboxamide 1,1-dioxide]
15 | 2.92 | 31 | 0.093 | O=C(N1CCS(=O)(=O)CC1)N(Cc1ccc(-c2nnc(C(F)(F)F)o2)cc1F)c1ccc(-c2cccnc2)cc1 [Compound 21517, N-(2-fluoro-4-(5-(trifluoromethyl)-1,3,4-oxadiazol-2-yl)benzyl)-N-(4-(pyridin-3-yl)phenyl)thiomorpholine-4-carboxamide 1,1-dioxide]
16 | 2.65 | 20 | 0.131 | O=C(N1CCS(=O)(=O)CC1)N(Cc1ccc(-c2nnc(C(F)(F)F)o2)cc1F)c1ccc(-c2ccncc2)cc1 [Compound 21519, N-(2-fluoro-4-(5-(trifluoromethyl)-1,3,4-oxadiazol-2-yl)benzyl)-N-(4-(pyridin-4-yl)phenyl)thiomorpholine-4-carboxamide 1,1-dioxide]
17 | 4.44 | 85 | 0.052 | Cn1ncc2ccc(N(Cc3ccc(-c4nnc(C(F)(F)F)o4)cc3F)C(=O)N3CCS(=O)(=O)CC3)cc21 [Compound 21545, N-(2-fluoro-4-(5-(trifluoromethyl)-1,3,4-oxadiazol-2-yl)benzyl)-N-(1-methyl-1H-indazol-6-yl)thiomorpholine-4-carboxamide 1,1-dioxide]
